Data as given in ChEMBL document CHEMBL1149112, “Predicting the cell differentiation activity of 1 alpha,25-dihydroxyvitamin D3 side chain analogues from docking simulations” (J Med Chem, 2004).

What was measured:
[1] = target: T1, Vitamin D3 receptor (Homo sapiens) (UniProt P11473); test: Binding affinity against Vitamin D3 receptor with reference to compound 1
T1 sequence (whole entry): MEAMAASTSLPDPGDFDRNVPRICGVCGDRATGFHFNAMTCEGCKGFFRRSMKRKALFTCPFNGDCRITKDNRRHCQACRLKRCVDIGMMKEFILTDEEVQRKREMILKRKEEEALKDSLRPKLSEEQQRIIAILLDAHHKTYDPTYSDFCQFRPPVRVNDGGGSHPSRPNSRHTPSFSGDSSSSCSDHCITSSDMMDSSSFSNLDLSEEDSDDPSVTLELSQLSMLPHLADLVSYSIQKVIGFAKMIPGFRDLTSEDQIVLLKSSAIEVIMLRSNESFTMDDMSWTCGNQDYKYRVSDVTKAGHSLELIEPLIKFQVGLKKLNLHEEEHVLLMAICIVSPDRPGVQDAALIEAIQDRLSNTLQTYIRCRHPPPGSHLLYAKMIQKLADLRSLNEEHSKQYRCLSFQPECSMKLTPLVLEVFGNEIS

[2] = target: T1, Vitamin D3 receptor (Homo sapiens); test: Binding affinity against Vitamin D3 receptor with reference to compound 1; value ranges from 2-5
[3] = target: T1, Vitamin D3 receptor (Homo sapiens); test: Binding affinity for Vitamin D3 receptor compared to compound 1; value ranges from 5-10
[4] = target: T1, Vitamin D3 receptor (Homo sapiens); test: Binding affinity against Vitamin D3 receptor with reference to compound 1; value ranges from 15-30

Row | Compound | A/Ad [1] | other results
1 | C=C1/C(=C/C=C2/CCC[C@@]3(C)[C@H]2CC[C@H]3[C@@H](C)CCCCC(O)(CC)CC)C[C@@H](O)C[C@@H]1O | 5 | –
2 | C=C1/C(=C/C=C2/CCC[C@]3(C)[C@@H]([C@H](C)CCCC(O)(CC)CC)CC[C@@H]23)C[C@@H](O)C[C@@H]1O | – | A/Ad [2]: 5
3 | C=C1/C(=C/C=C2/CCC[C@]3(C)C(C(C)OCCC(C)(C)O)CC[C@@H]23)C[C@@H](O)C[C@@H]1O (single isomer, unassigned) | – | A/Ad [3]: 10
4 | C=C1/C(=C/C=C2/CCC[C@]3(C)[C@@H]([C@@H](C)CCCCC(O)(CC)CC)CC[C@@H]23)C[C@@H](O)C[C@@H]1O | 200 | –
5 | C=C1/C(=C/C=C2/CCC[C@]3(C)[C@@H](C(C)OCCC(O)(CC)CC)CC[C@@H]23)C[C@@H](O)C[C@@H]1O (some centres undefined) | – | A/Ad [4]: 30
6 | C=C1/C(=C/C=C2/CCC[C@]3(C)[C@@H]([C@@H](C)CCCC(O)(CC)CC)CC[C@@H]23)C[C@@H](O)C[C@@H]1O | 100 | –

Further lines, with some results ahead:

Row | A/Ad [1] | Compound | other results
7 | 0.2 | C=C1/C(=C/C=C2/CCC[C@]3(C)[C@@H](C(C)COCC(C)(C)O)CC[C@@H]23)C[C@@H](O)C[C@@H]1O (some centres undefined) | –
8 | 20 | C=C1/C(=C/C=C2/CCC[C@]3(C)C([C@H](C)OCCCC(O)(CC)CC)CC[C@@H]23)C[C@@H](O)C[C@@H]1O (single isomer, unassigned) | –
9 | 200000 | C=C1/C(=C/C=C2/CCC[C@]3(C)[C@@H]([C@@H](C)OCCCC(O)(CC)CC)CC[C@@H]23)C[C@@H](O)C[C@@H]1O | –
